Counter-ions that a name gives are not always drawn.
Legend:
Format in all cases: physicochemical
[1] = Light illumination test (intense light, 4500±500 Lx); conditions: for Stability (conclusion in words): intense light illumination, no obvious changes in appearance color, loss on drying, purity, relevant substances; for Appearance color / Loss on drying (%) / Purity (%) / Relevant substances: light 4500±500 Lx; for Loss on drying (%) / Purity (%) / Relevant substances: hydrochloride
Text: Revaprazan hydrochloride crystalline form I is irradiated under such a condition that the light intensity is 4500±500 Lx, and is sampled on the 5th day and 10th day for detection, and the results are shown in Table 1. Revaprazan hydrochloride crystalline form II is irradiated under the condition that the light intensity is 4500±500Lx, and is sampled on the 5th day and 10th day for detection. Revaprazan hydrochloride polymorph III is irradiated under such a condition that the light intensity is 4500±500Lx, and is sampled on the 5th day and 10th day for detection. Revaprazan hydrochloride […] is irradiated under such a condition that the light intensity is 4500±500Lx, and is sampled on the 5th day and the 10th day for detection. Revaprazan hydrochloride crystalline form V is irradiated under the light intensity condition of 4500±500Lx; and is sampled on the 5th day and 10th day for detection.

[2] = High temperature test (60° C. incubator); conditions: for Appearance color / Loss on drying (%) / Purity (%) / Relevant substances: 60° C., hydrochloride; for Stability (conclusion in words): high temperature, no obvious changes in appearance color, loss on drying, purity, relevant substances
Method: Revaprazan hydrochloride crystalline form I is placed in a 60° C. incubator, and is sampled on the 5th day and 10th day for detection, and the results are shown in Table 2. Revaprazan hydrochloride crystalline form II is placed in a 60° C. incubator, and is sampled on the 5th day and 10th day for detection, and the results are shown in Table 6. Revaprazan hydrochloride polymorph III is placed in an incubator of 60° C., and is sampled on the 5th day and the 10th day for detection. Revaprazan hydrochloride crystalline form IV is placed in an incubator of 60° C., and is sampled on the 5th day and the 10th day for detection. Revaprazan hydrochloride crystal form 4 is placed in an incubator of 60° C.; and is sampled on the 5th day and the 10th day for detection, and the results are shown in Table 23.

[3] = High humidity test (25° C., relative humidity 75±5%); conditions: for Appearance color / Purity (%) / Relevant substances / Weight gain upon moisture absorption (%): 25° C., RH 75±5%; for Weight gain upon moisture absorption (in words): high humidity condition; for Stability (conclusion in words): high humidity, no obvious changes in appearance color, purity, relevant substances
Method: Revaprazan hydrochloride crystalline form I is placed in an incubator of 25° C. (relative humidity of 75±5%), and is sampled on the 5th day and 10th day for detection. Revaprazan hydrochloride crystalline form II is placed in an incubator of 25° C. (relative humidity of 75±5%), and is sampled on the 5th day and 10th day for detection. Revaprazan hydrochloride polymorph III is placed in an incubator of 25° C. (relative humidity of 75±5%), and is sampled on the 5th day and the 10th day for detection. Revaprazan hydrochloride crystalline form IV is placed in an incubator of 25° C. Revaprazan hydrochloride crystal form 4 is placed in an incubator of 25° C. (the relative humidity is 75±5%), and is sampled on the 5th day and the 10th day for detection.

[4] = Accelerated test (40±2° C., relative humidity 75±5%, 6 months, sealed polyethylene film bag); conditions: for Appearance color / Purity (%) / Relevant substances: 40±2° C., RH 75±5%; for Purity (%) / Relevant substances: hydrochloride; for Stability (conclusion in words): accelerated test, no obvious changes in appearance color, purity, relevant substances
Method: Revaprazan hydrochloride crystalline form I is sealed in a polyethylene film bag, is placed for 6 months under the conditions that the temperature is 40±2° C. and the relative humidity is 75±5%, and is respectively sampled at the end of the 1st Month, the 2nd Month, the 3rd Month and the 6^thMonth for detection; and the results are shown in Table 4. Revaprazan hydrochloride crystalline form II is sealed in a polyethylene film bag and is placed for 6 months under the conditions that the temperature is 40±2° C. and the relative humidity is 75±5%, and is respectively sampled at the end of the 1st Month, the 2nd Month, the 3rd Month and the 6th Month for detection; and the results are shown in Table 8. Revaprazan hydrochloride crystalline form III is sealed in a polyethylene film bag, is placed for 6 months under the conditions that the temperature is 40±2° C. and the relative humidity is 75±5%, and is sampled at the end of the 1st Month, the 2nd Month, the 3rd Month and the 6th Month for detection. Revaprazan hydrochloride crystalline form IV is sealed in a polyethylene film bag, is placed for 6 months under the conditions that the temperature is 40±2° C. and the relative humidity is 75±5%, and is sampled at the end of the 1st Month, the 2nd Month, the 3rd Month and the 6th Month for detection. Revaprazan hydrochloride crystalline form V is sealed in a polyethylene film bag and is placed for 6 months under the condition that the temperature is 40±2° C. and the relative humidity is 75±5%, and is sampled at the end of the 1st month, the 2nd month, the 3rd month and the 6th month for detection, and the results are shown in Table 20.

## Cc1nc(Nc2ccc(F)cc2)nc(N2CCc3ccccc3C2C)c1C (single isomer, unassigned) [revaprazan hydrochloride crystalline form II]
[1]
  Stability (conclusion in words): stable
[1]; 5th day
  Appearance color: White powder
  Loss on drying (%): 0.26%
  Purity (%): 99.97%
  Relevant substances: Not detected
[1]; 10th day
  Appearance color: White powder
  Loss on drying (%): 0.28%
  Purity (%): 99.94%
  Relevant substances: Not detected
[1]; Day 0
  Appearance color: White powder
  Loss on drying (%): 0.25%
  Purity (%): 99.94%
  Relevant substances: Not detected
[2]; 5th day
  Appearance color: White
  Loss on drying (%): 0.27%
  Purity (%): 99.97%
  Relevant substances: Not detected
[2]; 10th day
  Appearance color: White
  Loss on drying (%): 0.29%
  Purity (%): 99.95%
  Relevant substances: Not detected
[2]; Day 0
  Appearance color: White
  Loss on drying (%): 0.23%
  Purity (%): 99.94%
  Relevant substances: Not detected
[2]
  Stability (conclusion in words): stable
[3]; 5th day
  Appearance color: White powder
[3]; 5th day, hydrochloride
  Purity (%): 99.93%
  Relevant substances: Not detected
  Weight gain upon moisture absorption (%): 0.42%
[3]; 10th day
  Appearance color: White powder
[3]; 10th day, hydrochloride
  Purity (%): 99.95%
  Relevant substances: Not detected
  Weight gain upon moisture absorption (%): 0.64%
[3]; Day 0
  Appearance color: White powder
  Weight gain upon moisture absorption (%): 0%
[3]; Day 0, hydrochloride
  Purity (%): 99.94%
  Relevant substances: Not detected
[3]
  Weight gain upon moisture absorption (in words): slight weight gain
  Stability (conclusion in words): stable
[4]; 1st month
  Appearance color: White powder
  Purity (%): 99.93%
[4]; 2nd month
  Appearance color: White powder
  Purity (%): 99.95%
[4]; 3rd month
  Appearance color: White powder
  Purity (%): 99.96%
[4]; 6th month
  Appearance color: White powder
  Purity (%): 99.95%
[4]; Month 0
  Appearance color: White powder
  Purity (%): 99.94%
[4]
  Stability (conclusion in words): stable

## Cc1nc(Nc2ccc(F)cc2)nc(N2CCc3ccccc3C2C)c1C (single isomer, unassigned) [revaprazan hydrochloride crystalline form I]
[1]
  Stability (conclusion in words): stable
[1]; 5th day
  Appearance color: White powder
  Loss on drying (%): 0.28%
  Purity (%): 99.92%
  Relevant substances: Not detected
[1]; 10th day
  Appearance color: White powder
  Loss on drying (%): 0.30%
  Purity (%): 99.94%
  Relevant substances: Not detected
[1]; Day 0
  Appearance color: White powder
  Loss on drying (%): 0.27%
  Purity (%): 99.96%
  Relevant substances: Not detected
[2]; 5th day
  Appearance color: White powder
  Loss on drying (%): 0.23%
  Purity (%): 99.95%
  Relevant substances: Not detected
[2]; 10th day
  Appearance color: White powder
  Loss on drying (%): 0.24%
  Purity (%): 99.98%
  Relevant substances: Not detected
[2]; Day 0
  Appearance color: White powder
  Loss on drying (%): 0.21%
  Purity (%): 99.96%
  Relevant substances: Not detected
[2]
  Stability (conclusion in words): stable
[3]; 5th day
  Appearance color: White powder
[3]; 5th day, hydrochloride
  Purity (%): 99.93%
  Relevant substances: Not detected
  Weight gain upon moisture absorption (%): 0.42%
[3]; 10th day
  Appearance color: White powder
[3]; 10th day, hydrochloride
  Purity (%): 99.95%
  Relevant substances: Not detected
  Weight gain upon moisture absorption (%): 0.63%
[3]; Day 0
  Appearance color: White powder
  Weight gain upon moisture absorption (%): 0%
[3]; Day 0, hydrochloride
  Purity (%): 99.96%
  Relevant substances: Not detected
[3]
  Weight gain upon moisture absorption (in words): slight weight gain
  Stability (conclusion in words): stable
[4]; 1st month
  Appearance color: White powder
  Purity (%): 99.97%
  Relevant substances: Not detected
[4]; 2nd month
  Appearance color: White powder
  Purity (%): 99.92%
  Relevant substances: Not detected
[4]; 3rd month
  Appearance color: White powder
  Purity (%): 99.96%
  Relevant substances: Not detected
[4]; 6th month
  Appearance color: White powder
  Purity (%): 99.95%
  Relevant substances: Not detected
[4]; Month 0
  Appearance color: White powder
  Purity (%): 99.96%
  Relevant substances: Not detected
[4]
  Stability (conclusion in words): stable
